Assay results taken from paper PMC7256013, “Preclinical evaluation of cationic DOTA-triarginine-lipid conjugates for theranostic liquid brachytherapy” (Nanotheranostics, 2020).
Residues, ends and D or L forms follow the SMILES beside them. *: point of attachment. DOTA = O=C(O)CN1CCN(CC(=O)O)CCN(CC(=O)*)CCN(CC(=O)O)CC1; Stearoyl = CCCCCCCCCCCCCCCCCC(=O)*; Palmitoyl = CCCCCCCCCCCCCCCC(=O)*

Columns and labels:
[1] = Intratumoral distribution of radioactivity, voxel frequency distribution from PET
Experimental: (§2) Mice were injected intratumorally with ^64Cu-compounds in concentrations of 40 MBq/mL. During the scan procedures, mice were anaesthetized using 3-4 % sevoflurane (Abbott Scandinavia AB, Sweden) mixed with 35% O2 and 65% medical grade air and placed on heating pads. Two mice were positioned side-by-side, separated by a 6 mm polystyrene block for PET/CT imaging using Inveon® small animal PET/CT system with CT based PET image attenuation (Siemens Medical Systems, Malvern, PA, USA). The protocol included a 12-minute PET scan, followed by a CT scan. Mice were fixed on a bed inside the scanner with the syringe placed and the needle fixed centrally in the tumor and ready for injection. Upon initiation of the first scan, intratumoral injections were done manually over 30 seconds, to investigate the initial dynamics of the tracer diffusion. Following this, two further scans were included; at six hours (5 minutes scan time) and 24 hours (12 minutes scan time) after injection. Reconstruction of the PET scans were performed using maximum a posteriori (MAP) reconstruction algorithm (voxel size: 0.815 x 0.815 x 0.796 mm; resolution (FWHM) 1.2 mm). The injection scan was reconstructed in 4 x 30 second and 10 x 60 second time frames to observe the dynamics of tracer diffusion. The two last time points were reconstructed in a single time frame.
(§3) Image analysis was performed using commercially available Inveon software (Siemens Medical Systems, Malvern, PA, USA). Regions of interest (ROIs) were manually drawn based on the co-registered PET/CT images. The following ROIs were constructed; tumors (complete volume delineated), liver, spleen, kidney, bladder, and blood. Blood activity was estimated from a constructed ROI covering the left ventricular lumen of the heart. ROIs in the left ventricle and abdominal aorta were subsequently segmented to only include the voxels displaying above 80% of maximum activity with the original ROI. From the obtained uptake values all data was calculated into %ID/g for each organ and as %ID in tumors by adjusting for CT based tumor volume. Furthermore, voxel values from tumor ROIs were used to generate histograms for substance diffusion over time in the tumor region.
Note that the first point in each plot represents the percentage of voxels with radioactivity concentrations lower than 1.6 %ID/g. These voxels are considered empty, meaning that the corresponding tumor region is non-radioactive.

[2] = Tumor retention and biodistribution by PET/CT after intratumoral injection; settings: mean ± SEM; for Absolute retention of radioactivity in tumors: PET; for tumor retention: CT26 tumor, PET/CT
Experimental: CT26 wildtype cells (murine colon carcinoma, ATCC, Virginia, US) were cultured RPMI (Roswell Park Memorial Institute) medium supplemented with 10 % heat-inactivated Fetal Calf Serum (FCS) and 1 % Penicillin-Streptomycin (Invitrogen, Carlsbad, CA., US) retained in 5 % CO2 incubator at 37 °C. Immunocompetent female Balb/C mice (Charles River, Wilmington, MA., USA) were inoculated with tumor cells after one week of adaptation. All 20 mice included were inoculated subcutaneously with 3 x 10^5 CT26 wildtype cells in 100 µL medium on the right flank and hereafter monitored for weight and tumor size continuously for study purposes and to monitor the health of the mice. Tumor sizes were calculated from the formula of 0.52 x lenght^2 x width, as measured by external caliper. Animals were included in the study when tumors were approximately 400 mm^3.
as §2, §3

[3] = Ex vivo well counting of tumor and organs; settings: ex vivo after the 24-hour scan, mean ± SEM
Experimental: After the completion of PET/CT imaging, mice were sacrificed and tumor, spleen, and liver tissue were collected and well counted (Wizard, Perkin Elmer, US). Tissue radioactivity was recorded and corrected for isotope decay and well counter efficiency. Final results are presented in %ID/organ calculated from activity and the tissue weight.

[4] = Critical micelle concentration by surface tension measurement (Du Noüy); assay type: physicochemical; settings: 0.49-250 µM
Experimental: An Ez-pi+ surface tensiometer, with dyneprobe (diameter: 0.51 mm) and polypropylene sample cuvettes were purchased from Kibron to measure the surface tension.
(§1) D3R-C16 or D3R-C18 was dispersed in ISO-HEPES-NaCl or ISO-HEPES-Sucrose for a final concentration of 250 μM as stock solutions. Sample series were prepared by diluting the stock solutions with ISO-HEPES-NaCl or ISO-HEPES-Sucrose into concentrations of 125, 62.5, 31.25, 15.63, 7.81, 3.91, 1.95, 0.98 and 0.49 μM. The surface tension of the sample was measured by the Du Noüy method with a platinum probe. For each sample, the measurements were repeated until three consecutive measurements varied with less than 1 mN/m between them. Based on the critical micelle concentration of D3R-C18, a micellar dispersion of D3R-C18 in ISO-HEPES-Sucrose (2.0 mM) was prepared. The zeta potential of the D3R-C18 micelles was measured on a Zetasizer (Malvern).

CT26 cells = assay: Cytotoxicity, MTS assay; assay type: cell-based, murine; settings: 4000 cells/well, 24 h incubation with compound, then 48 h without, absorbance 490 nm
Experimental: CT26 (murine colon carcinoma) was purchased from ATTC (Rockville) and cultured in DMEM medium supplemented with 10% fetal calf serum and pen-strep (Invitrogen Inc) at 37 °C and 5% CO2 in a humidified atmosphere. A commercial MTS assay was used to assess cytotoxicity. (Promega, CellTiter 96® AQueous One Solution Cell Proliferation Assay).
Cells were plated onto 96 well plates at a density of 4000 cells/well the day before the start of experiment. The original culture medium was replaced by medium containing increasing amounts of the indicated agents. After 24 h incubation with D3R-C16 or D3R-C18, the medium was removed and the cells were further incubated for another 48 hours. To measure metabolically active cells, 100 µL of MTS solution was added to the wells and incubated until sufficient amount of color was developed and within the linear range. The absorbance was measured at 490 nm using a microplate reader (Sunrise, Tecan).

[5] = Micelle size (DLS) and zeta potential; assay type: physicochemical; settings: for PDI of micelles / average size of micelles (Z-average): 2.0 mM in ISO-HEPES, DLS; for average size of micelles (Z-average): broad distribution
Experimental: Liposomes were prepared using a mini-extruder (Avanti Polar Lipids) or a LIPEX Thermobarrel Pressure Extruder (10 mL, Northern Lipids). The hydrodynamic size and zeta potential of liposomes were measured by dynamic light scattering (DLS) on a Zetasizer (Malvern). Intensity weighted lognormal mean sizes are reported, unless otherwise noted. Sizes were measured in ISO-HEPES-NaCl and zeta potentials were measured in ISO-HEPES-Sucrose. Lipid concentrations were measured by ICP-MS (Thermo Scientifc, iCAP Q) by quantifying the phosphorous content of liposome samples against an internal standard of gallium (10 ppb). Sephadex G-25 PD-10 columns (8.3 mL bed volume) were purchased from GE Healthcare.
as §1

[6] = Partitioning of radiolabeled surfactant into liposomes (SEC, PD-10); assay type: physicochemical; settings: 37 °C, 60 min, for D3R-C18 at lipid 0.36 and 0.72 mM
Experimental: Three different liposomes types were prepared: (1) POPC only, (2) POPC-POPG (9:1), (3) commercially available stealth lipid mixture (see above). POPC or the POPC-POPG mixture was freeze- dried from tert-butanol:water (9:1). The resulting lyophilizate or the stealth lipid mixture (187.5 mg) was then hydrated with ISO-HEPES-NaCl (5.0 mL) at 65 ℃ for 60 minutes by magnetic stirring. This was followed by sizing through a mini-extruder with a cut-off size of 100 nm. Size, PDI and zeta potential of all three preparations were measured (Table 1). The liposomes were diluted to lipid concentrations of 0.4, 1.0 and 4.0 mM for partitioning studies.
A dispersion of ^64Cu-D3R-C16 (200 μM) in ISO-HEPES-NaCl (100 µL) was added to POPC liposomes (900 µL, 0.4 mM). The resulting mixture was magnetically stirred at 37 ℃. Mixtures were separated by size-exclusion chromatography (SEC) at 10, 30, 60, 120 and 180 minutes after addition. An aliquot (100 µL) was applied to a PD-10 cartridge and eluted with ISO-HEPES-NaCl. […] The radioactivities of the two collected fractions and the column were measured by dose calibrator. […] The partitioning of the radiolabeled constructs into liposomes was calculated as the ratio of the radioactivity in the liposomal fraction to the total radioactivity of the liposomal fraction plus the column. […] The mixtures were analyzed by SEC by applying 200 µL to a PD-10 cartridge (see above). […]

[7] = 5 minutes after the start of the PET scan
[8] = 12 minutes post intratumoral injection, 40 MBq/mL
[9] = in ISO-HEPES-NaCl (10 mM HEPES, 150 mM NaCl, pH 7.4)
[10] = in ISO-HEPES-Sucrose (10 mM HEPES, 300 mM sucrose, pH 7.4)

Compound | non-radioactive voxels in tumor (<1.6 %ID/g) [1, 7] | Absolute retention of radioactivity in tumors ([2]; 0.25 min) [%ID/g] | Absolute retention of radioactivity in tumors ([2]; 0.75 min) [%ID/g] | Absolute retention of radioactivity in tumors ([2]; 1.25 min) [%ID/g] | Absolute retention of radioactivity in tumors ([2]; 1.75 min) [%ID/g] | Absolute retention of radioactivity in tumors ([2]; 2.5 min) [%ID/g] | Absolute retention of radioactivity in tumors ([2]; 3.5 min) [%ID/g] | Absolute retention of radioactivity in tumors ([2]; 4.5 min) [%ID/g] | Absolute retention of radioactivity in tumors ([2]; 5.5 min) [%ID/g] | Absolute retention of radioactivity in tumors ([2]; 6.5 min) [%ID/g] | Absolute retention of radioactivity in tumors ([2]; 7.5 min) [%ID/g] | Absolute retention of radioactivity in tumors ([2]; 8.5 min) [%ID/g] | Absolute retention of radioactivity in tumors ([2]; 9.5 min) [%ID/g] | Absolute retention of radioactivity in tumors ([2]; 10.5 min) [%ID/g] | Absolute retention of radioactivity in tumors ([2]; 11.5 min) [%ID/g] | tumor retention [2, 8] [%ID/tumor] | Absolute retention of radioactivity in tumors ([2]; 6 h) [%ID/g] | Absolute retention of radioactivity in tumors ([2]; 24 h) [%ID/g] | Accumulation of radioactivity in liver [3] [ID%/g] | Accumulation of radioactivity in spleen [3] [ID%/g] | also measured
O=C([O-])CN1CCN(CC(=O)[O-])CCN(CC(=O)O)CCN(CC(=O)O)CC1.[64Cu+2] [64Cu-DOTA] | less than 10% | 78 ± 37 | 130 ± 13 | 127 ± 14 | 123 ± 14 | 120 ± 14 | 115 ± 14 | 111 ± 14 | 108 ± 14 | 105 ± 14 | 102 ±14 | 100 ± 14 | 97 ± 13 | 94 ± 13 | 92 ± 12 | 52 ± 4 | 4 ± 1 | 2 ± 0.8 | 1 ± 0.2 | 0.3 ± 0.05 | non-radioactive voxels in tumor (<1.6 %ID/g) ([1]; 6 h): More than 40%; tumor retention ([2]; 6 hours post intratumoral injection): 2.4 ± 0.7 %ID/tumor; tumor retention ([2]; 24 hours post intratumoral injection): 1.4 ± 0.4 %ID/tumor; Accumulation of radioactivity in tumor [3]: 1 ± 0.3 ID%/g
CCCCCCCCCCCCCCCC(=O)N[C@@H](CCCNC(=N)N)C(=O)N[C@@H](CCCNC(=N)N)C(=O)N[C@@H](CCCNC(=N)N)C(=O)N[C@@H](CCCCNC(=O)CN1CCN(CC(=O)O)CCN(CC(=O)O)CCN(CC(=O)O)CC1)C(N)=O [D3R-C16] (Palmitoyl-RRRK(DOTA)-NH2) |  |  |  |  |  |  |  |  |  |  |  |  |  |  |  |  |  |  |  |  | CMC [4, 9]: about 40 µM; CMC [4, 10]: above 100 µM; median lethal concentration (LC50) (CT26 cells): above 100 µM; PDI of micelles [5]: 0.3; average size of micelles (Z-average) [5]: 10 nm; stealth liposome partitioning, 177Lu label compared with 64Cu label [6]: no significant difference
CCCCCCCCCCCCCCCCCC(=O)N[C@@H](CCCNC(=N)N)C(=O)N[C@@H](CCCNC(=N)N)C(=O)N[C@@H](CCCNC(=N)N)C(=O)N[C@@H](CCCCNC(=O)CN1CCN(CC(=O)O)CCN(CC(=O)O)CCN(CC(=O)O)CC1)C(N)=O [D3R-C18] (Stearoyl-RRRK(DOTA)-NH2) |  |  |  |  |  |  |  |  |  |  |  |  |  |  |  |  |  |  |  |  | CMC [4, 9]: about 10 µM; CMC [4, 10]: above 100 µM; median lethal concentration (LC50) (CT26 cells): above 100 µM; PDI of micelles [5]: 0.3; average size of micelles (Z-average) [5]: 10 nm; zeta potential of micelles ([5]; 2.0 mM micellar dispersion in ISO-HEPES-Sucrose, Zetasizer): 20.7 ± 0.5 mV
[Cl][64Cu][Cl] [Free 64CuCl2] | less than 10% | 97 ± 19 | 167 ± 50 | 164 ± 53 | 162 ± 54 | 159 ± 53 | 156 ± 54 | 154 ± 53 | 152 ± 53 | 150 ± 53 | 148 ± 52 | 146 ± 52 | 145 ± 53 | 143 ± 52 | 142 ± 51 | 45 ± 5 | 18 ± 3 | 10 ± 1 | 14 ± 1 | 2 ± 0.6 | Accumulation of radioactivity in tumor [3]: 11 ± 3 ID%/g
